Here are results for 7 molecules from PMC7497253, “Structure‐Based Macrocyclization of Substrate Analogue NS2B‐NS3 Protease Inhibitors of Zika, West Nile and Dengue viruses” (Chemmedchem, 2020).

Where two headings read alike, the source gives them in different places. Starred links: 1 amine or outer side, 2 acyl side, 3 side chain; linkers in the order of their positions; H or OH if unused. Non-standard residues stand in square brackets, D forms with d. Residues, ends and D or L forms follow the SMILES beside them. dεLys(Nα-amidino) = N=C(N)N[C@H](CCCCN[*:1])C(=O)[*:2]; βAla = NCCC(=O)O

What all share (format): biochemical
Test [1] concerns the target T1, bD4Pro (unlinked binary dengue-4 virus NS2B-NS3 protease) (Dengue virus type 4, UniProt Q2YHF2).
T1 construct: The viral protease consists of the N‐terminal third of the nonstructural protein NS3; NS3 has to form a complex with its cofactor NS2B to achieve proteolytic activity; His6 (cleaved yes); made in house
T1 sequence (Q2YHF2 1475-1652 limits assumed): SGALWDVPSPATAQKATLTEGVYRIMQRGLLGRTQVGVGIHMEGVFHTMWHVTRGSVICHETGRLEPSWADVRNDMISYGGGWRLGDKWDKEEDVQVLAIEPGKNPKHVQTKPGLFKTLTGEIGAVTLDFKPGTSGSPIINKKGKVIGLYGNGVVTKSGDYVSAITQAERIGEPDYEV
T1 sequence (Q2YHF2 1397-1436 limits assumed): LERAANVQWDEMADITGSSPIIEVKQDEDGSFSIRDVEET
The test is described as follows: Enzyme kinetics with bD4Pro, substrate Benzoyl-Nle-Lys-Arg-Arg-AMC. How it is done:
Measurements with the dengue 4 virus protease construct (bD4Pro; expressed and purified by a similar methodology as described for bZiPro15 with slight modification of using Tobacco Etch Virus (TEV) protease instead of thrombin for His6‐tag cleavage) were performed in a Cytation 3 Mulitmode plate reader with λ ex at 380 nm and λ em at 460 nm. Assays were carried out as triplicate at 37 °C. Before measurement, the protease (final assay concentration 3 nM) was preincubated with varying concentrations of inhibitors in assay buffer (20 mM Tris pH 8.5, 10 % glycerol, 0.01 % Triton X‐100) for 1 h at room temperature in Corning black clear bottom 96‐well plates. The reaction was started by addition of the substrate Benzoyl‐Nle‐Lys‐Arg‐Arg‐AMC (final assay concentration 50 μM, K M=48.4 μM). Fluorescent readings were recorded at 1‐minute intervals over 10 minutes. The steady‐state rates v i in presence of inhibitor were calculated from the slopes of the progress curves using Graph Pad Prism. The v i values were fitted to Equation (2) as function of the inhibitor concentration [I] providing the IC50 values, where v 0 is the rate in absence of inhibitor and s a slope factor. The obtained IC50 values were finally converted into K i values by the Cheng‐Prusoff Equation (2).(2) vi=v0/1+I/IC50^s (3) Ki=IC50/1+S/KM

Test [2] concerns the target T2, WNV NS2B-NS3 protease (WNV-Pro) (West Nile virus, UniProt P06935).
T2 construct: NS3 has to form a complex with its cofactor NS2B to achieve proteolytic activity; The viral protease consists of the N‐terminal third of the nonstructural protein NS3
The test can be described thus: Enzyme kinetics with the covalent WNV NS2B-NS3 construct, substrate Phac-Leu-Lys-Lys-Arg-AMC. The procedure: (§1) Enzyme kinetics. Measurements with bZiPro15 and the covalent WNV NS2B‐NS3 construct^10 were performed at room temperature in black 96 well plates using a Fluoroskan Ascent® plate reader (Thermo Fisher Scientific, Vantaa, Finland) with λ ex at 355 nm and λ em at 460 nm. Each well contained 125 μL inhibitor dissolved in buffer (for bZiPro: 20 mM Tris×HCl pH 8.5, 2 mM DTT, 10 w/v glycerol and 0.01 w/v Triton X‐100;18 for WNV protease: 100 mM Tris×HCl pH 8.5, containing 32 w/v glycerol and 0.01 w/v Triton X‐10012) and 50 μL substrate Phac‐Leu‐Lys‐Lys‐Arg‐AMC12 (40 μM for bZiPro (10 μM in assay, K M=1.4 μM) and 400 μM for the WNV protease (100 μM in assay, K M=53 μM)). The measurements were started by addition of 25 μL enzyme solution (16 nM for bZiPro (2.0 nM in assay), and 64 nM for the WNV protease (8.0 nM in assay)). Data points were collected each 15 s over a period of 10 min using eight different inhibitor concentrations. […] The K i values and their standard deviation were obtained from at least three independent measurements.(1) vi=Vmax×[S]/KM1+[I]/Ki+[S]

Test [3] concerns the target T3, bZiPro (unlinked binary Zika virus NS2B-NS3 protease) (Zika virus, UniProt A0A024B7W1).
T3 construct: The viral protease consists of the N‐terminal third of the nonstructural protein NS3; the NS2B construct ends at Glu96; His6 (cleaved yes); made in house
The test is described as follows: Enzyme kinetics with bZiPro, fluorogenic substrate Phac-Leu-Lys-Lys-Arg-AMC. To be noted: for Ki: mean±SD of at least three independent measurements, substrate 10 μM in assay, room temperature, pH 8.5. The procedure: as §1
The constants K M and V max were obtained from independent measurements with six different substrate concentrations in absence of inhibitor. For inhibitor 10 with bZiPro, additional measurements at three substrate concentrations (10, 5, and 2.5 μM in assay) were performed to obtain the Dixon plot shown in Figure 4.

A further test has as its target T4, trypsin (Bos taurus, UniProt P00760).
T4 construct: gene PRSS1
T4 sequence (P00760 24-246): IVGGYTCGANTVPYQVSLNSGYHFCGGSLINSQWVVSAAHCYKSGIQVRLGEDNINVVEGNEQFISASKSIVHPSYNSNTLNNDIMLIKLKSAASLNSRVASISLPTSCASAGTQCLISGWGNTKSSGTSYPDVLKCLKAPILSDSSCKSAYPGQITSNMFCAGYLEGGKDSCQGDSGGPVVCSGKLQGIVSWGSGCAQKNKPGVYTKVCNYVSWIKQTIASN
The test can be described thus: Enzyme kinetic assay with trypsin (selectivity). To be noted: at concentrations of 75 μM. The text has this:
(§2) Some of the latter group, like the peptidic arginal8 or boroarginine derivatives,10 form a reversible covalent bond with their target. […] With respect to virus replication, mutations in allosteric binding pockets are better tolerated than changes in the active site, which often lead to a more severe influence on the fitness of the virus.31, 32 This advantage justifies further efforts for the improvement of active site inhibitors. One strategy to reduce the conformational freedom of peptide derivatives and predisposing them to a favorable orientation for binding is their macrocyclization, leading to improved potency, selectivity and stability.33 By this approach, we have prepared numerous noncovalent inhibitors with excellent selectivity for the tested flavivirins, when compared with trypsin‐like serine proteases or basic proprotein convertases. […] The deep S1 pocket of trypsin34 and furin35 cannot tolerate a branching close to the basic P1 guanidine anchor, which is well accepted by the flavivirins due to their flat and open S1 site. In contrast to some of our previously described linear C‐terminal elongated derivatives,18, 36 the cyclic derivatives are fully stable when incubated with bZiPro, as analyzed by mass spectrometry (Figure S3). […]

Another test has as its target furin (Homo sapiens, UniProt P09958). The test is described as follows: Enzyme kinetic assay with furin (selectivity). The note with it: at concentrations of 75 μM.
Source text: as §2

T3 sequence (A0A024B7W1 1503-1680 limits assumed): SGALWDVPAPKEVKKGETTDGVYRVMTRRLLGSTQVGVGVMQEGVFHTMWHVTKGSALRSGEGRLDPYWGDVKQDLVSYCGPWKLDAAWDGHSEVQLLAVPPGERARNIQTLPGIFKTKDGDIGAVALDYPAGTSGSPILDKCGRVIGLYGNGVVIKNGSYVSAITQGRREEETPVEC
T3 sequence (A0A024B7W1 1425-1464 limits assumed): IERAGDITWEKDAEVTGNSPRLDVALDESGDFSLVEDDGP
T2 sequence (P06935 1424-1463): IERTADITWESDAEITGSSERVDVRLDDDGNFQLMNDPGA
T2 sequence (P06935 1502-1679): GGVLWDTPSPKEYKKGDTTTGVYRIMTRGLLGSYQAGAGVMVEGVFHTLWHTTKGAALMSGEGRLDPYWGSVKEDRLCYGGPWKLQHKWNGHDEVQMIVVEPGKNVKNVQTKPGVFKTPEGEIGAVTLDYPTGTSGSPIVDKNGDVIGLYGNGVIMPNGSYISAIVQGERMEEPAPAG
Chain of furin (P09958 108-794): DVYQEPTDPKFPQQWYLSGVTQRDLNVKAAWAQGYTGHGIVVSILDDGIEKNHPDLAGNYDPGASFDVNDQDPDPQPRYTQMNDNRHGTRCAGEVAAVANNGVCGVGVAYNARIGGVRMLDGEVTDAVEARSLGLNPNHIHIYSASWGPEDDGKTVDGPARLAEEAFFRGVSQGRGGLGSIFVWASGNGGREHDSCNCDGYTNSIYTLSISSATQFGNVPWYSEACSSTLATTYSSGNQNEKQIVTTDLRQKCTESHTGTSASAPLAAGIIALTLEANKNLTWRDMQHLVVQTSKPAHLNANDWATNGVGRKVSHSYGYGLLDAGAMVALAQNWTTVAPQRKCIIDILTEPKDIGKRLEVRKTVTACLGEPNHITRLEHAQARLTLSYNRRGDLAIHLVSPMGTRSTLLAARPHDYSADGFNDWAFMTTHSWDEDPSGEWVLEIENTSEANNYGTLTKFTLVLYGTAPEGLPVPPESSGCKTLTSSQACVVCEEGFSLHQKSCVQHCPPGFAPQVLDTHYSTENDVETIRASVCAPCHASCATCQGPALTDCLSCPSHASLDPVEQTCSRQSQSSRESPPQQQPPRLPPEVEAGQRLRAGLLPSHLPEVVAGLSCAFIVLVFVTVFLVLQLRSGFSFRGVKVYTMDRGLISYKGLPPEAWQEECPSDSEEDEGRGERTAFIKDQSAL

Consider `N=C(N)N[C@@H]1CCCCNC(=O)[C@H](CCCCN)NC(=O)[C@H](CCCCN)NC(=O)Cc2cccc(c2)CNC(=O)CNC1=O` [Inhibitor 10, 1‐((8R,15S,18S)‐15,18‐bis(4‐aminobutyl)‐4,7,14,17,20‐pentaoxo‐3,6,13,16,19‐pentaaza‐1(1,3)‐benzenacyclohenicosaphane‐8‐yl)guanidine], for which the Ki in test [1] came to 0.142 ± 0.01 µM; in test [2], 0.138 ± 0.031 µM; in test [3] (K i bZiPro), 0.00157 ± 0.00032 µM. Moreover, the “binding mode from Dixon plot of bZiPro inhibition” value in test [3] (substrate 10, 5 and 2.5 μM, bZiPro 1.96 nM in assay) is given as “competitive reversible”. Moreover, the inhibition of trypsin entry against trypsin was “could not detect any inhibition”. Moreover, at furin, the inhibition of furin entry is recorded as “could not detect any inhibition”.

Take `N=C(N)N[C@@H]1CCCCNC(=O)[C@H](CCCCN)NC(=O)[C@H](CCCCN)NC(=O)Cc2cccc(c2)NC(=O)CNC1=O` [Inhibitor 11]: the Ki in test [1] came to 60.6 ± 5.3 µM; in test [2], 47.6 ± 2.5 µM; in test [3] (K i bZiPro), 1.42 ± 0.27 µM. Further, the inhibition of trypsin entry at trypsin is reported as “could not detect any inhibition”. The inhibition of furin entry against furin is listed as “could not detect any inhibition”.

As to `N=C(N)N[C@@H]1CCCCNC(=O)[C@H](CCCCN)NC(=O)[C@H](CCCCN)NC(=O)CNC(=O)CNC(=O)CCNC1=O` [Inhibitor 28] (cyclo([βAla]GGKK[dεLys(Nα-amidino)])), the Ki stood at 2.72 ± 0.19 µM in test [1] (mean±SD of at least three independent measurements, 37 °C, IC50 converted into K i by Cheng-Prusoff, read-out: K i bD4Pro); 0.974 ± 0.134 µM in test [2] (mean±SD of at least three independent measurements, substrate 100 μM in assay, room temperature, pH 8.5, read-out: K i WNV-Pro); 0.0128 ± 0.0005 µM in test [3] (read-out: K i bZiPro).

Turning to `N=C(N)N[C@H](CCCCNC(=O)[C@H](CCCCN)NC(=O)[C@H](CCCCN)NC(=O)Cc1cccc(CNC(=O)CN)c1)C(=O)O` [Inhibitor 29], the Ki in test [1] is 75 ± 3.4 µM; in test [2] it was 51.6 ± 0.7 µM; in test [3] (K i bZiPro) it was 2.04 ± 0.6 µM. In addition, the “times less potent inhibitor of bZiPro than analogue 10” value in test [3] (compared with cyclic analogue 10) was “more than 1000 times”.

As to `N=C(N)N[C@H](CCCCNC(=O)[C@H](CCCCN)NC(=O)[C@H](CCCCN)NC(=O)Cc1cccc(CNC(=O)CN)c1)C(N)=O` [Inhibitor 30], the figures for the Ki in test [1], in test [2] and in test [3] (K i bZiPro) were 0.775 ± 0.047 µM, 1.55 ± 0.38 µM and 0.0136 ± 0.0026 µM, respectively. The “fold improved potency compared with 29” value in test [3] (uncharged amide analogue versus free P1 carboxyl compound 29) is reported as “more than 100 fold”.

As to `CC(=O)NCc1cccc(CC(=O)N[C@@H](CCCCN)C(=O)N[C@@H](CCCCN)C(=O)NCCCC[C@@H](NC(=N)N)C(N)=O)c1` [Inhibitor 31], the Ki in test [1] is 1.21 ± 0.09 µM; in test [2] it was 1.48 ± 0.1 µM; in test [3] (K i bZiPro), 0.00948 ± 0.00061 µM.

Regarding `CC(=O)NCc1cccc(CC(=O)N[C@@H](CCCCN)C(=O)N[C@@H](CCCCN)C(=O)NCCCCCNC(=N)N)c1` [Inhibitor 32], the Ki in test [1] worked out at 18.1 ± 1.2 µM; in test [2] it was 4.94 ± 0.53 µM; in test [3] (K i bZiPro), 0.0882 ± 0.0038 µM.
